One may read the pEC50 as the negative decadic logarithm of the EC50, by convention in mol/L. For orientation: pIC50 means the negative decadic logarithm of the IC50, by convention in mol/L.

These results are taken from patent publication US12410160B2 (Gilead Sciences, Inc., priority 2021, dated 2025).

pEC50, pIC50: −log10 of the molar value. Where two headings read alike, the source gives them in different places.

Test [1] deals with HepG2 cells. Briefly: F1P Cell-Based Assay (EC50), 13C6-fructose-1-phosphate in HepG2 cells (cell culture medium or 50% human plasma).
The target of test [2] is human KHK-A (Homo sapiens (Human), UniProt P50053). The test can be described thus: KHK Biochemical Assay (IC50), ADP-Glo, KHK-A. The settings on record: average of at least two separate assays. In outline: (§1)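 ADP-Glo luminescence measured ADP made over a 4 h room-temperature reaction of ATP plus fructose, started after 30 min compound–enzyme pre-incubation. Buffer: 50 mM Hepes pH 7.4, 140 mM KCl, 5 mM MgCl2, 0.01% Triton-X. Enzyme was His-tagged, BL21 (DE3)-expressed, Ni-NTA-purified; compounds in 1:3 DMSO dilution series.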
Chain of human KHK-A (P50053 other isoform, or with tags, fused parts or gaps): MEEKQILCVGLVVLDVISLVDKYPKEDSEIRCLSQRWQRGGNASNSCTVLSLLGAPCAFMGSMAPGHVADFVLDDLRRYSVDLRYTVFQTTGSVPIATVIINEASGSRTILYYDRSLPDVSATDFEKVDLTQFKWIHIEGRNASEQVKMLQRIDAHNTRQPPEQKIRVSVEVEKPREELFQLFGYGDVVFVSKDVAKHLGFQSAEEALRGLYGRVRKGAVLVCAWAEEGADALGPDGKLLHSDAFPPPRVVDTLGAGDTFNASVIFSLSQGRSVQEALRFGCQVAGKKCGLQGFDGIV
For orientation: ADP-Glo turns the ADP formed in a reaction into a luminescent signal.

Test [3] has as its target KHK-C expressed in NRK-52E cells (Homo sapiens (Human), UniProt P50053). The test can be described thus: KHK-C Cell-based Assay (EC50), NRK CTG, fructose-mediated ATP-depletion.
Test [4] concerns the target human KHK-C (Homo sapiens (Human), UniProt P50053). The test can be described thus: KHK Biochemical Assay (IC50), ADP-Glo, KHK-C. The settings on record: average of at least two separate assays. Put shortly:
as §1

[5] abbreviates: Homo sapiens, HepG2, HepG2 cells, 50% human plasma, read-out: F1P 50% HP EC50.
The mark [6] stands for this setting: Homo sapiens, HepG2, read-out: F1P 10% FBS EC50, HepG2 cells, cell culture medium (10% FBS).

Chain of human KHK-C (P50053 whole entry): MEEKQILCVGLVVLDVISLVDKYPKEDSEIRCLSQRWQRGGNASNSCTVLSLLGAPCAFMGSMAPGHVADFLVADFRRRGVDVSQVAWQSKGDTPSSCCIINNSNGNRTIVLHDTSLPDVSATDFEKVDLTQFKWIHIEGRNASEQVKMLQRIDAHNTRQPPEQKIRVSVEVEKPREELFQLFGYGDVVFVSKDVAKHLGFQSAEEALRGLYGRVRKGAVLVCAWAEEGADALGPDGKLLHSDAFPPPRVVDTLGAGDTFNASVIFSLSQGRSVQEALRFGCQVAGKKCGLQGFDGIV
Chain of KHK-C expressed in NRK-52E cells (P50053 whole entry): as above

Take `C[C@H]1[C@H](O)CN1c1nc(-c2ccc3c(c2)OCCNC3)c2c(n1)C(F)(F)CC2` [Example 760, (2S,3R)-1-[7,7-difluoro-4-(2,3,4,5-tetrahydro-1,4-benzoxazepin-8-yl)-5,6-dihydrocyclopenta[d]pyrimidin-2-yl]-2-methyl-azetidin-3-ol]: the values for the negative-log EC50 (pEC50) in test [1] (setting [5]), in test [1] (setting [6]) and in test [3] were 8.85, 8.96 and 8.85, respectively. In addition, the pIC50 in test [2] is 8.22; in test [4], 8.77.

On to `C[C@H]1[C@H](O)CN1c1nc(-c2ccc3c(c2)CC[C@]32NC(=O)N(CCO)C2=O)c2c(n1)C(F)(F)CC2` [Example 686, (58)-5′-[7,7-difluoro-2-[(2S,3R)-3-hydroxy-2-methyl-azetidin-1-yl]-5,6-dihydrocyclopenta[d]pyrimidin-4-yl]-3-(2-hydroxyethyl)spiro[imidazolidine-5,1′-indane]-2,4-dione], for which the negative-log EC50 (pEC50) in test [1] (setting [5]) is 7.15; in test [1] (setting [6]), 7.17; in test [3], 8.19. Moreover, the negative-log IC50 (pIC50) in test [2] was 7.78; in test [4], 10.00.

Take `C[C@H]1[C@H](O)CN1c1nc(-c2ccc3c(c2)[S@](=N)(=O)CCO3)c2c(n1)C(F)(F)CC2` (single isomer, unassigned) [Example 820]: the negative-log EC50 (pEC50) in test [1] (HepG2 cells, 50% human plasma, read-out: F1P 50% HP EC50) is 7.17; in test [1] (read-out: F1P 10% FBS EC50, HepG2 cells, cell culture medium (10% FBS)), 7.69; in test [3] (read-out: NRK CTG EC50, NRK-52E cells, Cell-Titer Glo, 25 mM fructose, 48 hours), 7.58. The pIC50 in test [2] (ADP-Glo) is 7.84; in test [4] (ADP-Glo) it was 8.21.

With `C[C@H]1[C@H](O)CN1c1nc(-c2ccc3c(c2)CC[C@@]32COCC(=O)N2)c2c(n1)C(F)(F)CC2` (single isomer, unassigned) [Example 549], the results for the negative logarithm of the EC50 (pEC50) in test [1] (setting [5]), in test [1] (setting [6]) and in test [3] were 7.76, 8.27 and 8.42, respectively. Moreover, the results for the pIC50 in test [2] and in test [4] were 8.27 and 10.00, respectively.

As for `C[C@H]1[C@H](O)CN1c1nc(-c2ccc3c(c2)OCC32NC(=O)OC2(C)C)c2c(n1)C(F)(F)CC2` (stereo partly drawn) [Example 565, 6-(7,7-difluoro-2-((2S,3R)-3-hydroxy-2-methylazetidin-1-yl)-6,7-dihydro-5H-cyclopenta[d]pyrimidin-4-yl)-5′,5′-dimethyl-2H-spiro[benzofuran-3,4′-oxazolidin]-2′-one], the figures for the pEC50 in test [1] (setting [5]), in test [1] (setting [6]) and in test [3] were 6.69, 7.30 and 7.71, respectively. In addition, the figures for the pIC50 in test [2] and in test [4] were 7.48 and 8.59, respectively.

Take `C[C@H]1CCN1c1nc(-c2ccc(C3(N)COC3)cc2)c2c(n1)C(F)(F)CC2` [Example 160, (S)-3-(4-(7,7-difluoro-2-(2-methylazetidin-1-yl)-6,7-dihydro-5H-cyclopenta[d]pyrimidin-4-yl)phenyl)oxetan-3-amine]: the pEC50 in test [1] (setting [5]) is 7.87; in test [1] (setting [6]), 8.32; in test [3], 8.70. The pIC50 was 8.34 in test [2] (ADP-Glo) and 9.05 in test [4] (ADP-Glo).

Take `COc1c(Cl)cc(-c2nc(N3C[C@@H](O)[C@@H]3C)nc3c2CCC3(F)F)cc1S(C)(=N)=O` (stereo partly drawn) [Example 717, (3-chloro-5-(7,7-difluoro-2-((2S,3R)-3-hydroxy-2-methylazetidin-1-yl)-6,7-dihydro-5H-cyclopenta[d]pyrimidin-4-yl)-2-methoxyphenyl)(imino)(methyl)-λ^6-sulfanone]: the negative logarithm of the EC50 (pEC50) in test [1] (setting [5]), in test [1] (setting [6]) and in test [3] was below 6.30 in each case. In addition, the pIC50 in test [2] and in test [4] was below 7.00 in each case.

Consider `COc1ccc(-c2nc(N3C[C@H](F)[C@@H]3C)nc3c2CCC3(F)F)cc1[S@@](C)(=N)=O` [Example 562, (S)-(5-(7,7-difluoro-2-((2S,3S)-3-fluoro-2-methylazetidin-1-yl)-6,7-dihydro-5H-cyclopenta[d]pyrimidin-4-yl)-2-methoxyphenyl)(imino)(methyl)-λ^6-sulfanone], for which the pEC50 is 8.44 in test [1] (setting [5]), 8.96 in test [1] (setting [6]) and 8.24 in test [3]. The pIC50 in test [2] was 9.52; in test [4] it was 8.85.

As to `Cc1ccc(-c2nc(N3C[C@@H](O)[C@@H]3C)nc3c2CCC3(F)F)cc1S(C)(=N)=O` (stereo partly drawn) [Example 718, (5-(7,7-difluoro-2-((2S,3R)-3-hydroxy-2-methylazetidin-1-yl)-6,7-dihydro-5H-cyclopenta[d]pyrimidin-4-yl)-2-methylphenyl)(imino)(methyl)-λ^6-sulfanone], the pEC50 in test [1] (setting [5]) was 7.63; in test [1] (setting [6]), 7.94; in test [3], 7.75. Also, the figures for the pIC50 in test [2] and in test [4] were 8.29 and 8.38, respectively.

For the molecule `C[C@H]1[C@H](F)CN1c1nc(-c2ccc(C3(N)COC3)cc2)c2c(n1)C(F)(F)CC2` [Example 468, 3-(4-(7,7-difluoro-2-((2S,3R)-3-fluoro-2-methylazetidin-1-yl)-6,7-dihydro-5H-cyclopenta[d]pyrimidin-4-yl)phenyl)oxetan-3-amine], the pEC50 in test [1] (setting [5]) is 7.62; in test [1] (setting [6]), 8.12; in test [3], 8.37. Moreover, the pIC50 in test [2] is 8.28; in test [4] it was 8.74.

In the case of `C[C@H]1C[C@H](C)N1c1nc(-c2ccc(C3(N)COC3)cc2)c2c(n1)C(F)(F)CC2` [Example 504, 3-(4-(2-((2S,4S)-2,4-dimethylazetidin-1-yl)-7,7-difluoro-6,7-dihydro-5H-cyclopenta[d]pyrimidin-4-yl)phenyl)oxetan-3-amine], the negative logarithm of the EC50 (pEC50) in test [1] (setting [5]) is 7.46; in test [1] (setting [6]), 8.00; in test [3], 7.94. In addition, the negative-log IC50 (pIC50) is 8.00 in test [2] and 8.64 in test [4].

Turning to `C[C@H]1[C@H](O)CN1c1nc(-c2ccc3c(c2)COC[C@]32COC(=O)N2)c2c(n1)C(F)(F)CC2` (single isomer, unassigned) [Example 556], the pEC50 in test [1] (setting [5]) was below 6.30; in test [1] (setting [6]) it was 6.68; in test [3], 6.70. Besides, the negative-log IC50 (pIC50) in test [2] was 7.38; in test [4], 7.58.

For `C[C@H]1CCN1c1nc(-c2ccc3c(c2)OC[C@@H]3NS(C)(=O)=O)c2c(n1)C(F)(F)CC2` [Example 528, N—((R)-6-(7,7-difluoro-2-((S)-2-methylazetidin-1-yl)-6,7-dihydro-5H-cyclopenta[d]pyrimidin-4-yl)-2,3-dihydrobenzofuran-3-yl)methanesulfonamide], the negative-log EC50 (pEC50) is 7.30 in test [1] (setting [5]), 8.60 in test [1] (setting [6]) and 8.47 in test [3]. This molecule had a negative logarithm of the IC50 (pIC50) in test [4] of 9.70.

For `C[C@H]1CCN1c1nc(-c2ccc3c(c2)OCCNC3=O)c2c(n1)C(F)(F)CC2` [Example 165, (S)-8-(7,7-difluoro-2-(2-methylazetidin-1-yl)-6,7-dihydro-5H-cyclopenta[d]pyrimidin-4-yl)-3,4-dihydrobenzo[f][1,4]oxazepin-5(2H)-one], the negative logarithm of the EC50 (pEC50) in test [1] (setting [5]) is 7.31; in test [1] (setting [6]), 8.01; in test [3] it was 8.64. In test [4] (ADP-Glo), the pIC50 was 9.10.

For `C[C@H]1CCN1c1nc(-c2ccc(C3(N)CC(F)(F)C3)cc2)c2c(n1)C(F)(F)CC2` [Example 648, 1-[4-[7,7-difluoro-2-[(2S)-2-methylazetidin-1-yl]-5,6-dihydrocyclopenta[d]pyrimidin-4-yl]phenyl]-3,3-difluoro-cyclobutanamine], the results for the negative logarithm of the EC50 (pEC50) in test [1] (setting [5]), in test [1] (setting [6]) and in test [3] were 7.56, 8.41 and 8.15, respectively. The same molecule had a negative logarithm of the IC50 (pIC50) in test [4] of 8.92.

Turning to `C[C@H]1[C@H](O)CN1c1nc(-c2ccc3c(c2)C(C)(C)C[C@@H]3NS(C)(=O)=O)c2c(n1)C(F)(F)CC2` (single isomer, unassigned) [Example 632], the pEC50 is below 6.30 in test [1] (setting [5]), 7.99 in test [1] (setting [6]) and 7.99 in test [3]. This molecule also showed a pIC50 in test [4] of 9.30.

On to `C[C@H]1CCN1c1nc(-c2ccc([C@@H](N)C(F)F)cc2)c2c(n1)C(F)(F)CC2` [Example 649, (1R)-1-[4-[7,7-difluoro-2-[(2S)-2-methylazetidin-1-yl]-5,6-dihydrocyclopenta[d]pyrimidin-4-yl]phenyl]-2,2-difluoro-ethanamine], for which the negative logarithm of the EC50 (pEC50) in test [1] (setting [5]) is 7.24; in test [1] (setting [6]) it was 7.89; in test [3], 8.07. In test [4], this molecule had a negative logarithm of the IC50 (pIC50) of 8.62.

In the case of `C[C@H]1[C@H](O)CN1c1nc(-c2cc3c(c(CNS(C)(=O)=O)c2)OCC3)c2c(n1)C(F)(F)CC2` [Example 761, N-[[5-[7,7-difluoro-2-[(2S,3R)-3-hydroxy-2-methyl-azetidin-1-yl]-5,6-dihydrocyclopenta[d]pyrimidin-4-yl]-2,3-dihydrobenzofuran-7-yl]methyl]methanesulfonamide], the negative-log EC50 (pEC50) is 6.89 in test [1] (setting [5]), 7.55 in test [1] (setting [6]) and 7.56 in test [3]. The molecule further showed a negative logarithm of the IC50 (pIC50) in test [4] of 8.48.

In the case of `C[C@H]1[C@H](O)CN1c1nc(-c2cccc([S@](C)(=N)=O)c2)c2c(n1)C(F)(F)CC2` (single isomer, unassigned) [Example 493], the negative-log EC50 (pEC50) in test [1] (setting [5]) was 7.38; in test [1] (setting [6]), 7.49; in test [3] it was 7.28. This molecule showed a pIC50 in test [4] of 7.93.

Take `C[C@H]1CCN1c1nc(-c2ccc3c(c2)OCC3NS(C)(=O)=O)c2c(n1)C(F)(F)CC2` (stereo partly drawn) [Example 758, N-[6-[7,7-difluoro-2-[(2S)-2-methylazetidin-1-yl]-5,6-dihydrocyclopenta[d]pyrimidin-4-yl]-2,3-dihydrobenzofuran-3-yl]methanesulfonamide]: the values for the negative-log EC50 (pEC50) in test [1] (setting [5]), in test [1] (setting [6]) and in test [3] were 7.39, 8.19 and 8.66, respectively. Moreover, the negative logarithm of the IC50 (pIC50) in test [4] is 9.30.
